# In patent publication US20230357179A1, “RAF KINASE INHIBITORS AND METHODS OF USE THEREOF” (Deciphera Pharmaceuticals, LLC, priority 2021, published 2023):
# Columns and labels:
# A-Raf kinase [1] = target: T1, A-Raf kinase (Homo sapiens, UniProt P10398, Y301D/Y302D); assay: Biochemical assay for A-Raf.1 (coupled pyruvate kinase/lactate dehydrogenase); details: read-out: ARAF.1 IC50
# T1 construct: purchased Sigma
# Summary of the method: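 A-Raf (5.55 nM) phosphorylating 30.1 nM MEK with 1 mM ATP was monitored by pyruvate kinase/lactate dehydrogenase-coupled NADH oxidation at 340 nm for 6 h at 30° C, in pH 7.5 Tris buffer with 15 mM MgCl2, 1% DMSO. Rates from 4–5 h gave percent inhibition; IC50 by four-parameter fit.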
# WM3928 cells [2] = assay: WM3928 cell proliferation assay (1), resazurin, 96-well; assay type: cell-based; details: inhibition of cell proliferation
# Summary of the method: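 IC50 was derived from resazurin fluorescence (ex 540, em 600 nm) after a 6–7 h dye incubation. Before that, cells had 67–72 h of compound exposure at 37 °C, 5% CO2.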
# A-Raf kinase [3] = target: T1, A-Raf kinase; assay: Biochemical assay for A-Raf.2 (coupled pyruvate kinase/lactate dehydrogenase); details: read-out: ARAF.2 IC50
# Protocol: Biochemical Assay for A-Raf.2
# Activity of A-Raf kinase (SEQ. ID No: 1) was determined spectroscopically using a coupled pyruvate kinase/lactate dehydrogenase assay that continuously monitors the ATP hydrolysis-dependent oxidation of NADH (e.g., Schindler et al., Science, 2000, 289, 1938-1942). Assays were conducted in 384-well plates (25 μL final volume) using 20 nM A-Raf (Eurofins), 1.5 units pyruvate kinase, 2.1 units lactate dehydrogenase, 1 mM phosphoenol pyruvate, 0.7 mM NADH, 100 nM MEK (SignalChem), and 1 mM ATP in assay buffer (100 mM Tris, pH 7.5, 15 mM MgCl2, 0.5 mM DTT, 0.1% octyl-glucoside, 0.002% (w/v) BSA, and 0.002% Triton X-100). Inhibition of A-Raf was measured by adding serial diluted test compound (final assay concentration of 1% DMSO). A decrease in absorption at 340 nm was monitored hourly for 4 h at 30° C. on a multi-mode microplate reader (BioTek). The reaction rate was calculated using the 3 to 4 h time frame. The reaction rate at each concentration of compound was converted to percent inhibition using controls (i.e., reaction with no test compound and reaction with a known inhibitor) and IC50 values were calculated by fitting a four-parameter sigmoidal curve to the data using Prism (GraphPad software).
# WM3928 cells [4] = assay: WM3928 cell proliferation assay (2), resazurin, 384-well; assay type: cell-based; details: inhibition of cell proliferation, 67-72 hours
# Protocol: WM3928 Cell Proliferation Assay (2)
# WM3928 cells (#WM3928-01-0001) are obtained from Rockland Immunochemicals Inc (Gilbertsville, PA). Briefly, cells were grown in MCDB 153 medium (Sigma, #M7403, St. Louis, MO) supplemented with 20% Leibovitz's L-15 (ThermoFisher #11415-064, Waltham, MA), 2% heat inactivated fetal bovine serum (ThermoFisher, #A3840001, Waltham, MA), 5 μg/mL Insulin (Bovine Pancreas) (Sigma, #I0516, St. Louis, MO), 1.68 mM Calcium Chloride (Sigma, #C-34006, St. Louis, MO) and 1% Penicillin/Streptomycin/L-Glutamine (ThermoFisher #10378016, Waltham, MA) at 37° C., 5% CO2, and 95% humidity. Cells are expanded until reaching 70-95% confluency at which point they are sub-cultured or harvested for assay use. Using the Beckman Coulter Echo 650, a serial dilution of test compound is dispensed into a 384-well black clear bottom plate in triplicate. Seven hundred fifty cells are added per well in 50 μL complete growth medium in the 384-well plate. Plates are incubated for 67-72 hours at 37° C., 5% CO2, and 95% humidity. At the end of the incubation, 10 μL of a 440 μM solution of resazurin (Sigma, #199303, St. Louis, MO) in PBS is added to each well of the plate and plates are incubated for an additional 3-6 hours at 37° C., 5% CO2, and 95% humidity. Plates are read on a Synergy2 or equivalent reader (Biotek, Winooski VT) using an excitation of 540 nm and an emission of 600 nm. Data is analyzed using Prism software (GraphPad, San Diego, CA) to calculate IC50 values.
# T1 sequence (P10398 with tags, fused parts or gaps Y301D/Y302D): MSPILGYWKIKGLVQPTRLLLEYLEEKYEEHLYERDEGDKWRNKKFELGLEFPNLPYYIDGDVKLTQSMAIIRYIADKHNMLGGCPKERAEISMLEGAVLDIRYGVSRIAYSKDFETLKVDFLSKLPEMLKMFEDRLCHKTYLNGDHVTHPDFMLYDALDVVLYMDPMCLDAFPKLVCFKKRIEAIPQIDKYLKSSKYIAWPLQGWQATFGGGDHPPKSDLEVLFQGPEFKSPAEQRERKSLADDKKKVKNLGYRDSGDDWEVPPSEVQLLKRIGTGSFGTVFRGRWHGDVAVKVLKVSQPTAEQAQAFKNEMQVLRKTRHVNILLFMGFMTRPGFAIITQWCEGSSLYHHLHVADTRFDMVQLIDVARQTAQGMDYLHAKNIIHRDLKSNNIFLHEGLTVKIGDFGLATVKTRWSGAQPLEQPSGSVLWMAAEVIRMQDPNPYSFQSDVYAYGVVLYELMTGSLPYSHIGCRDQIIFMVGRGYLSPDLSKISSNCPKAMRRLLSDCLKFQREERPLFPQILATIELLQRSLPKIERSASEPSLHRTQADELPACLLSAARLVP
Compound,IC50 (A-Raf kinase [1]),IC50 (WM3928 cells [2]),IC50 (A-Raf kinase [3]),IC50 (WM3928 cells [4])
COC(=O)Nc1cc(-c2cccc(-c3cc(NC(=O)NCCC(C)(C)OC)c(F)cc3C)c2)ccn1 [Example 85],> 1000 nM,100 to 500 nM,,
Cc1cc(F)c(NC(=O)NCCC2(C)CC2)cc1-c1cc(OCCO)nc(-c2ccnc3[nH]ncc23)c1 [Example 87],500 to 1000 nM,≤ 100 nM,,
Cc1cc(F)c(NC(=O)N[C@@H]2CC[C@H](F)C2)cc1-c1cc(OCCO)nc(-c2ccnc3[nH]ncc23)c1 [Example 88],> 1000 nM,1000 to 10000 nM,,
Cc1cc(F)c(NC(=O)NCC[C@@H]2CCO2)cc1-c1cc(OCCO)nc(-c2ccnc3[nH]ncc23)c1 [Example 89],> 1000 nM,1000 to 10000 nM,,
COC(C)(C)CCNC(=O)Nc1cc(-c2cc(OCCO)nc(-c3ccnc4[nH]ccc34)c2)c(C)cc1F [Example 90],> 1000 nM,500 to 1000 nM,,
COC(C)(C)CCNC(=O)Nc1cc(-c2cc(OCCO)nc(-c3ccnc4[nH]ncc34)c2)c(C)cc1F [Example 91],> 1000 nM,100 to 500 nM,,
Cc1cc(F)c(NC(=O)N2CCC(C)(C#N)CC2)cc1-c1cc(OCCO)nc(-c2ccnc3[nH]ncc23)c1 [Example 92],> 1000 nM,1000 to 10000 nM,,
CNC(=O)c1cc(-c2cc(-c3cc(NC(=O)N4CC[C@H](C(F)(F)F)C4)ccc3C)ccn2)ccn1 [Example 215],,500 to 1000 nM,> 1000 nM,
CNC(=O)c1cc(-c2cncc(-c3cc(NC(=O)N4CC[C@H](C(F)(F)F)C4)ccc3C)c2)ncn1 [Example 220],,,> 1000 nM,500 to 1000 nM
COC(=O)Nc1cc(-c2cncc(-c3cc(NC(=O)N4CC[C@H](C(F)(F)F)C4)ccc3C)c2)ncn1 [Example 224],,100 to 500 nM,100 to 500 nM,
CNC(=O)c1cc(-c2cc(-c3cc(NC(=O)N4CC[C@H](C(C)C)C4)ccc3C)ccn2)ccn1 [Example 225],,,> 1000 nM,100 to 500 nM
CNC(=O)c1cc(-c2cncc(-c3cc(NC(=O)N4CC[C@H](C(C)C)C4)ccc3C)c2)ncn1 [Example 226],,,> 1000 nM,100 to 500 nM
Cc1ccc(NC(=O)N2CC[C@H](C)C2)cc1-c1cncc(-c2cc(NC(=O)C3CC3)ncn2)c1 [Example 227],,,≤ 100 nM,100 to 500 nM
CNC(=O)c1cc(-c2cncc(-c3cc(NC(=O)N4CC[C@H](C(F)(F)F)C4)ccc3C)c2)ccn1 [Example 228],,,> 1000 nM,100 to 500 nM
CNC(=O)c1cc(-c2cncc(-c3cc(NC(=O)N4CC[C@H](C(C)C)C4)ccc3C)c2)ccn1 [Example 229],,,> 1000 nM,100 to 500 nM
